Experimental data from article PMC11785374, “Synergistic effect of inhibiting CHK2 and DNA replication on cancer cell growth” (eLife, 2025).

Columns and labels:
[1] = target: T1, JNK3 (Homo sapiens, UniProt P53779); experiment: radiometric in vitro kinase assay (Eurofins KinaseProfiler); type: biochemical
T1 construct: gene MAPK10

[2] = target: T2, Aurora-A (Homo sapiens, UniProt O14965); experiment: as above; type: biochemical
T2 construct: gene AURKA
T2 sequence (O14965 1-403): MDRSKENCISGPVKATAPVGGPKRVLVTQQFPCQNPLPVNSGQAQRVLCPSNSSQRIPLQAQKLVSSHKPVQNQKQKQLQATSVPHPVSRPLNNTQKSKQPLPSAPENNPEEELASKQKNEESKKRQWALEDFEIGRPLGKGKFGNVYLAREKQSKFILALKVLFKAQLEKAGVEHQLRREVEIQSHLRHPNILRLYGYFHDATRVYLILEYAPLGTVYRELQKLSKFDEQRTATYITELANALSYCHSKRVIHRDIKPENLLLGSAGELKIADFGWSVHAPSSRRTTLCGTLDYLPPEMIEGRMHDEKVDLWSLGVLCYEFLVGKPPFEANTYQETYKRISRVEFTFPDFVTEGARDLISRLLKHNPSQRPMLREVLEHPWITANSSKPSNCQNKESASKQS

[3] = target: T3, CHK2 (Homo sapiens, UniProt O96017); experiment: radiometric in vitro kinase assay (Eurofins KinaseProfiler); also CETSA in MCF-7 cells; type: biochemical
T3 construct: gene CHEK2

[4] = target: T4, Aurora-B (Homo sapiens, UniProt Q96GD4); experiment: radiometric in vitro kinase assay (Eurofins KinaseProfiler); type: biochemical
T4 construct: gene AURKB

[5] = target: AKT1/PKBα (Homo sapiens, UniProt P31749); experiment: as above; type: biochemical
[6] = target: POLE (catalytic subunit of DNA polymerase ε) (Homo sapiens, UniProt Q07864); experiment: CETSA in MCF-7 cells ([…] BKC), western blot; type: cell-based
[7] = target: T5, POLD1 (catalytic subunit of DNA polymerase δ) (Homo sapiens, UniProt P28340); experiment: CETSA in MCF-7 cells ([…] BKC), western blot; type: cell-based
T5 sequence (P28340 1-1107): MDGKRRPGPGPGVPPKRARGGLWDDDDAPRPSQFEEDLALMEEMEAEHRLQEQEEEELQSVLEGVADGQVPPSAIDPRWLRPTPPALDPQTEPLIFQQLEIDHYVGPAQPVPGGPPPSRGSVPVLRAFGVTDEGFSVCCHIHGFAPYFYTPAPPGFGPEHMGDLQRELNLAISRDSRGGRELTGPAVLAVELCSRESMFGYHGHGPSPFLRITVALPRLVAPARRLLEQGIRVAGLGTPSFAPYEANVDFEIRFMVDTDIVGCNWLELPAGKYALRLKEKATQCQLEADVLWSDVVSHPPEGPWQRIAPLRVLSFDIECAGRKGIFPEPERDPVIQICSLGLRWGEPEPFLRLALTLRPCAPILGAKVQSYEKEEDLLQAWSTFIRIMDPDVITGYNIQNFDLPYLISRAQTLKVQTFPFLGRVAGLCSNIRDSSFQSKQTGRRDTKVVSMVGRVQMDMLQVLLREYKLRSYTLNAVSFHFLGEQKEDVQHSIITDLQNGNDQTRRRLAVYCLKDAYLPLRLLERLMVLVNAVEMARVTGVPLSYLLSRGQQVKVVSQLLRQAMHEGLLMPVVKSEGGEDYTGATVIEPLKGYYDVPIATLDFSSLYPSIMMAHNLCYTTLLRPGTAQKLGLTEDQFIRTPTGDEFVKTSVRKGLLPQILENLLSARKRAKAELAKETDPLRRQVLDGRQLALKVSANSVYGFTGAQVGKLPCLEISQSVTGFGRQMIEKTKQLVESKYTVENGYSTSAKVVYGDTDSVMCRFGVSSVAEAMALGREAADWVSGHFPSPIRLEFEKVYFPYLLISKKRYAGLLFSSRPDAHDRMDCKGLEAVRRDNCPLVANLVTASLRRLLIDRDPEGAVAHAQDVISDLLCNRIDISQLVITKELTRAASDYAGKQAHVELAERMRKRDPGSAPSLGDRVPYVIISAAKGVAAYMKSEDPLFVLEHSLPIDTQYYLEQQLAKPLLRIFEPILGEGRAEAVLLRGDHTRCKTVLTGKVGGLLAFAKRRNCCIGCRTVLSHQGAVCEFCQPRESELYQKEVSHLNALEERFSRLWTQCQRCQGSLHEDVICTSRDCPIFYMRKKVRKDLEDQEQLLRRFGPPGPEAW

[8] = target: T6, POLD1 (p125, catalytic subunit of Polδ) (Xenopus laevis, UniProt Q642R8); experiment: CETSA in Xenopus egg extracts ([…] BKC), western blot; type: cell-free
T6 construct: gene pold1.L
T6 sequence (Q642R8 1-1109): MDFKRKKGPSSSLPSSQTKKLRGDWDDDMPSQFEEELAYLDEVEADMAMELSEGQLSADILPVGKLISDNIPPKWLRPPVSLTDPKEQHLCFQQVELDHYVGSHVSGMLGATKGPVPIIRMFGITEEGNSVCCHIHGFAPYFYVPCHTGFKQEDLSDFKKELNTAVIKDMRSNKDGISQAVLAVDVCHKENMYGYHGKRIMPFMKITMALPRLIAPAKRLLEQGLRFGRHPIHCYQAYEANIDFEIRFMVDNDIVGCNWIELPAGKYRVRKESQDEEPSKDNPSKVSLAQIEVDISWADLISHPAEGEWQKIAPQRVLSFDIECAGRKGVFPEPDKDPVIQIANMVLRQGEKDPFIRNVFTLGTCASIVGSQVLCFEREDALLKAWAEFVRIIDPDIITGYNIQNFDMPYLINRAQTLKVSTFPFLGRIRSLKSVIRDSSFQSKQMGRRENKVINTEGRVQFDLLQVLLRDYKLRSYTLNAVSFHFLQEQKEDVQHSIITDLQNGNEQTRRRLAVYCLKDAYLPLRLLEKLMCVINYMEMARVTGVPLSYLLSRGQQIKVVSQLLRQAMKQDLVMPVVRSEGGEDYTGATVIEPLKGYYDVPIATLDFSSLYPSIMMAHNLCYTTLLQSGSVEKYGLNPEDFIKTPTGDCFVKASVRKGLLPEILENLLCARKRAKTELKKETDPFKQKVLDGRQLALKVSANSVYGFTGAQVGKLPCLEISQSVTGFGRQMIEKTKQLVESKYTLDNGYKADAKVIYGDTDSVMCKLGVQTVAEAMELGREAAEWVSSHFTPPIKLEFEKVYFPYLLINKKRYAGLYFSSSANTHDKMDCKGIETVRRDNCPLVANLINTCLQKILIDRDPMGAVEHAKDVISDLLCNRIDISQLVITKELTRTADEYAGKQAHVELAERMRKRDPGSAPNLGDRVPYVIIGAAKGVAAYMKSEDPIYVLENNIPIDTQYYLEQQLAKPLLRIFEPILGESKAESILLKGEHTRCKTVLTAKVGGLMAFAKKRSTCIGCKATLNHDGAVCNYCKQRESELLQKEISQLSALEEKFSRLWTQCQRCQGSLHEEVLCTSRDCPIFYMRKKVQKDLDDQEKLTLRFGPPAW

POLE (catalytic subunit of DNA polymerase ε), sequence (Q07864 whole entry): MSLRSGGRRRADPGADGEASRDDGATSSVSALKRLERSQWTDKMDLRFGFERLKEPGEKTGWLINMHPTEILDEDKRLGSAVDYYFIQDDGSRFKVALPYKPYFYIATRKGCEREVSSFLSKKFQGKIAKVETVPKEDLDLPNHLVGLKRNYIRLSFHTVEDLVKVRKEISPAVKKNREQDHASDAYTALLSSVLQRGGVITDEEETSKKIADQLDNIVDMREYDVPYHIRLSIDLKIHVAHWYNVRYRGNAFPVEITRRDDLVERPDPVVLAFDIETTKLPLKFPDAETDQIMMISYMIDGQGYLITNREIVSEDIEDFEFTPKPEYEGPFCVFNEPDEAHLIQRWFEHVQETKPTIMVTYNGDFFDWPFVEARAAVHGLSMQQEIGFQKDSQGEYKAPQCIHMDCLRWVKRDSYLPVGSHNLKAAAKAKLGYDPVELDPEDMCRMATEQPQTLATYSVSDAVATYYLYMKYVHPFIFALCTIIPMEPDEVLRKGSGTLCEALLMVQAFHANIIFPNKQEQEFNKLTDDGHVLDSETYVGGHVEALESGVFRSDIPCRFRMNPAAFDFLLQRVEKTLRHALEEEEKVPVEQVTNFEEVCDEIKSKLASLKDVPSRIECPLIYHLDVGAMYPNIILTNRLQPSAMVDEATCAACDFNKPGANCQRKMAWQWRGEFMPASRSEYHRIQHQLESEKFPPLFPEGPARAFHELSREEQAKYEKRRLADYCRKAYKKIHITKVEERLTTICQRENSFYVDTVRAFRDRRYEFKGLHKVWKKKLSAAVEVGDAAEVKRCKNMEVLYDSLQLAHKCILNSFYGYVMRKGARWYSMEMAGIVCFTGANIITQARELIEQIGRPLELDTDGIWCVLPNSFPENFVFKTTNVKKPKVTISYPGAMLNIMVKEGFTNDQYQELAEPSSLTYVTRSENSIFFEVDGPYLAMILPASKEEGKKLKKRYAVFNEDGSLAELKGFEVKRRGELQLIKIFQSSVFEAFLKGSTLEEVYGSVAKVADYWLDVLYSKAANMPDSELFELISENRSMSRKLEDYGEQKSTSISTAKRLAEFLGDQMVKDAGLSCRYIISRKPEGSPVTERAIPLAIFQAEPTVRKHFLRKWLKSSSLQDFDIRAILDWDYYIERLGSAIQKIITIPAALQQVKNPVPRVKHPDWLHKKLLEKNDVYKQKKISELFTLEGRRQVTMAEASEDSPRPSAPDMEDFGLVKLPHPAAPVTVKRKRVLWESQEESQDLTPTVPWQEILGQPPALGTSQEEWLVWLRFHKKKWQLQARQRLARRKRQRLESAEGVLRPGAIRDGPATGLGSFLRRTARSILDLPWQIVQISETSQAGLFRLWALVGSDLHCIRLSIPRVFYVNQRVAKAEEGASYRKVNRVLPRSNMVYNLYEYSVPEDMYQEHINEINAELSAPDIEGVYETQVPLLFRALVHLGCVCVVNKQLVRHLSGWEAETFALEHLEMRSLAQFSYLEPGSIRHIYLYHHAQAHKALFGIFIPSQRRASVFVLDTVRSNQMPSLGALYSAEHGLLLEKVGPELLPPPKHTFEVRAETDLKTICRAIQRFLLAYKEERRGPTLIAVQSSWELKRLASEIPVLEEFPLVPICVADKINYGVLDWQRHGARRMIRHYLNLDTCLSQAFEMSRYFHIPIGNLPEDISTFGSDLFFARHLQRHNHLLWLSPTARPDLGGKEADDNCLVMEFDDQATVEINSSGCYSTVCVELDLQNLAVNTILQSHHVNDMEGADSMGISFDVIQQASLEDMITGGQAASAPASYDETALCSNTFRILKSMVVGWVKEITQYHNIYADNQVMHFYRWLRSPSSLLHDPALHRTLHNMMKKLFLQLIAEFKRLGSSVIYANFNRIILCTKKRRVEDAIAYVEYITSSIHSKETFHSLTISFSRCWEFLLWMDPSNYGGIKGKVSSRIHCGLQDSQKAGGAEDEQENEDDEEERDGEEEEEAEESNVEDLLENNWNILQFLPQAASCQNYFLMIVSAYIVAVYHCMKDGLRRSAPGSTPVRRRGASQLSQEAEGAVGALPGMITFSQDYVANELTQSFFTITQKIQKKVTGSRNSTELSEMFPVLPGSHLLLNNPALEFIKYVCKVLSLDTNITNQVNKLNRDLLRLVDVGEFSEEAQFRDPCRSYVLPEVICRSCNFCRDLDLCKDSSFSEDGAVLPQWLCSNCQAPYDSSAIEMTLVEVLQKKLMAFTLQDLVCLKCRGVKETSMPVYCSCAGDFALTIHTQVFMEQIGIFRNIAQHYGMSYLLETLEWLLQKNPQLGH
AKT1/PKBα, sequence (P31749 whole entry): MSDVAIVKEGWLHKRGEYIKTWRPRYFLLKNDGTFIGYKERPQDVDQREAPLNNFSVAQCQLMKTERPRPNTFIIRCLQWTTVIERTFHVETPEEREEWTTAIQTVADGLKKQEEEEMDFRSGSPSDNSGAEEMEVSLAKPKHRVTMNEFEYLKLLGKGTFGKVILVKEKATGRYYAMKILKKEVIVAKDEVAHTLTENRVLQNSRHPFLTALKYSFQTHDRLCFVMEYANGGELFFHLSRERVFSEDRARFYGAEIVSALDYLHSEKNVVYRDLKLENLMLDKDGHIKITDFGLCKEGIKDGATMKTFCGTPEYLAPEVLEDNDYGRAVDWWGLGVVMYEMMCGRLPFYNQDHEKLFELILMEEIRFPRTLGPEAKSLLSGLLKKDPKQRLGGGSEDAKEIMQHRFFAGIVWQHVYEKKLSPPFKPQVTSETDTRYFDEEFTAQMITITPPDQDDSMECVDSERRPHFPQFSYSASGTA
T1 sequence (P53779 whole entry): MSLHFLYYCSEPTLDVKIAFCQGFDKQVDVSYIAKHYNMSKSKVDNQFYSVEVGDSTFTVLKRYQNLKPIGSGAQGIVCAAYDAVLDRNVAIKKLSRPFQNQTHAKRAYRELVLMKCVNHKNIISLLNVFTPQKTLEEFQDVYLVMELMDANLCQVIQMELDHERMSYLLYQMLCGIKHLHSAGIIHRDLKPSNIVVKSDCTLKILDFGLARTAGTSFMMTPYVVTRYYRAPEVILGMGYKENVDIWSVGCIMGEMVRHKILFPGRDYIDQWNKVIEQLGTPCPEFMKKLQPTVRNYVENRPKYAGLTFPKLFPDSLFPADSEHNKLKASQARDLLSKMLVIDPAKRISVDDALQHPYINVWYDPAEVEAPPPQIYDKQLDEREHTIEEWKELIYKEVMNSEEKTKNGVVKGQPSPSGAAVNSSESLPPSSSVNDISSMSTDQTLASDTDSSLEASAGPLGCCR
T4 sequence (Q96GD4 whole entry): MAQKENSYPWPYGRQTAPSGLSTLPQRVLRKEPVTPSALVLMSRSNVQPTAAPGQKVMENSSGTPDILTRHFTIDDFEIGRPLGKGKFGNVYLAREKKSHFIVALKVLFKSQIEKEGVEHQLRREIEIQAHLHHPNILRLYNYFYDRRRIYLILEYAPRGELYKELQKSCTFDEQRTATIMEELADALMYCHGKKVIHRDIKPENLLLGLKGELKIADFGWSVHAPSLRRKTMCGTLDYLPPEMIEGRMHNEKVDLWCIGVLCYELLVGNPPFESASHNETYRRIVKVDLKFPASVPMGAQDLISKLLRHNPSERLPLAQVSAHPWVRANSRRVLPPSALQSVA
T3 sequence (O96017 whole entry): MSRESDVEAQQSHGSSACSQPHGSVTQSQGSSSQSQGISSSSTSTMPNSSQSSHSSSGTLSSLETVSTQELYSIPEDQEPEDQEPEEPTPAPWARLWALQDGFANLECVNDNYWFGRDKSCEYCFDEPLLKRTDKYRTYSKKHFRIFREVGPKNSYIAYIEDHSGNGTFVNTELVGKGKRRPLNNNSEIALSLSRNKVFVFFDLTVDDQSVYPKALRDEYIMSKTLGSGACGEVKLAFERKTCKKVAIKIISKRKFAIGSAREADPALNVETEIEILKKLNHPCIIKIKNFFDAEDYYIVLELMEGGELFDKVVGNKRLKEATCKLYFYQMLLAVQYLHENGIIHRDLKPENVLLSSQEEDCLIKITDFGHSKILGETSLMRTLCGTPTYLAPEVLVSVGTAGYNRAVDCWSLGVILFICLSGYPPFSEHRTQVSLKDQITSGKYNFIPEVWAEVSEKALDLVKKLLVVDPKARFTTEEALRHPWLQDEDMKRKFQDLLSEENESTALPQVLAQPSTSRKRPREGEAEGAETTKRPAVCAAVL

| SMILES | IC50 [1] [µM] | IC50 [2] [µM] | IC50 [3] [µM] | IC50 [4] [µM] | IC50 [5] [µM] | CETSA in MCF-7 cells (40 μM BKC), western blot [6] | CETSA in MCF-7 cells (40 μM BKC), western blot [7] | CETSA in Xenopus egg extracts (40 μM BKC), western blot [8] |
| --- | --- | --- | --- | --- | --- | --- | --- | --- |
| CC(C)=CCc1c(O)ccc(C(=O)/C=C/c2ccc(O)cc2)c1O [IBC, Isobavachalcone] | 16.4 | 11.2 | 3.5 | 11.2 | 56.7 |  |  |  |
| C=C[C@@](C)(/C=C/c1ccc(O)cc1)CCC=C(C)C [BKC, Bakuchiol] |  |  |  |  |  | BKC interacts with the catalytic subunits of Polδ and Polε in MCF-7 cells | BKC interacts with the catalytic subunits of Polδ and Polε in MCF-7 cells | BKC specifically stabilize the catalytic subunit POLD1 of Polδ, but not that of the accessory subunit POLD3 in Xenopus |
